Results reported in article doi:10.1101/2025.07.02.662801v1 (biorxiv, 2025).
pIC50: −log10 of the molar value. Like-named read-outs stand apart in the source and are kept apart here.

What was measured:
Format in all cases: biochemical
[1] = biological target: T1, PTPN2 (TC-PTP); GST-TC-PTP catalytic domain (Homo sapiens, UniProt P17706); experiment: DiFMUP fluorescence phosphatase assay
T1 sequence (P17706 1-314 limits assumed): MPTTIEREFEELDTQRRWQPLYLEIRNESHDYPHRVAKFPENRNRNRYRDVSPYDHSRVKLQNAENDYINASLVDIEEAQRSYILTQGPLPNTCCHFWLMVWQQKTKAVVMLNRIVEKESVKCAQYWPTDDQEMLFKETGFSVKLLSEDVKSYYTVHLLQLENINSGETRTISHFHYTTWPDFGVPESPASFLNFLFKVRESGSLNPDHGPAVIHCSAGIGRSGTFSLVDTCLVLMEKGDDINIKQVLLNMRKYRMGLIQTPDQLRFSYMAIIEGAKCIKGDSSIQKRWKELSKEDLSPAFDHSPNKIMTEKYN

PTPN9 (MEG2) = biological target: T2, PTPN9 (MEG2) (Homo sapiens, UniProt P43378); experiment: in vitro phosphatase activity curve
T2 sequence (P43378 1-593): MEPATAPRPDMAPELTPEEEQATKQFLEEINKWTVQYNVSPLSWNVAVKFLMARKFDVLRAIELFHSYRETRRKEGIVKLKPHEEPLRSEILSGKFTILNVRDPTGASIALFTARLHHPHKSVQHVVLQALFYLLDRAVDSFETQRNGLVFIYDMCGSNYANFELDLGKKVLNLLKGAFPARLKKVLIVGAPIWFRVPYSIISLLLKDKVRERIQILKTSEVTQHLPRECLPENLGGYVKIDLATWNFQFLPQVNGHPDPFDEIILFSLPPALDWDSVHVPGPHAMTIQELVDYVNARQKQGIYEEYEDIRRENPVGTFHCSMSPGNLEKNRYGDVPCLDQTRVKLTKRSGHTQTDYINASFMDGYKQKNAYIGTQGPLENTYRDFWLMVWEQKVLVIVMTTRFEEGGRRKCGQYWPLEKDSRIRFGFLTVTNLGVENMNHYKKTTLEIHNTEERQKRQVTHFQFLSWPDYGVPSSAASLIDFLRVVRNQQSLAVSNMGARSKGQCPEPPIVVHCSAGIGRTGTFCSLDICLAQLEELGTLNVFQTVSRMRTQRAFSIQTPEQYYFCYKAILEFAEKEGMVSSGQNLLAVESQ

[2] = biological target: T3, PTPN1 (PTP1B); GST-PTP1B catalytic domain (Homo sapiens, UniProt P18031); experiment: DiFMUP fluorescence phosphatase assay
T3 sequence (P18031 1-321 limits assumed): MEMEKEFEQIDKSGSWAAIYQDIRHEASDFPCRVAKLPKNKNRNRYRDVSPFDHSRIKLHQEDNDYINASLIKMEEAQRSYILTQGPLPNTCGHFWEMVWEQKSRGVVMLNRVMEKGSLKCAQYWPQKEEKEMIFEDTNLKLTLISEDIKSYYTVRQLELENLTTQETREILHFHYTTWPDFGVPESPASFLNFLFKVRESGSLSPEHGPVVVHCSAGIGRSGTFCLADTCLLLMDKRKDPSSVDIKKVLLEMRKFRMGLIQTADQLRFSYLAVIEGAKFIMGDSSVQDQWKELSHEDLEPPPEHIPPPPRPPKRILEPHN

Compound: N#Cc1ccc2cc(Br)c(C(F)(F)P(=O)(O)O)cc2c1 [L598]
- pIC50 ([1]; 50 mM HEPES pH 7.0, 3 mM DTT, 1 mg/mL BSA, 25 °C, DiFMUP at Km): 6.31

Compound: N#CCc1ccc2cc(Br)c(C(F)(F)P(=O)(O)O)cc2c1 [KQ791]
- pIC50 (PTPN9 (MEG2)): 5.14
- pIC50 [2]: 6.73
- pIC50 [1]: 6.73
